Experimental data from publication PMC8617031, “Development of a BCL-xL and BCL-2 dual degrader with improved anti-leukemic activity,” (Nature Communications, 2021).
Several values for one entry are separate records, joined by “and”; a condition that tells them apart may be missing. Equal entries are not always repeated.

Experiments:
Type in all cases: cell-based, human
Kasumi-1 cells = assay: Apoptosis by Annexin-V/DAPI flow cytometry in Kasumi-1 cells; conditions: Fig. 7c-e, g
Procedure: After treatment, cells were stained with Annexin V-FLUOS (1: 200, Cat. No. 11828681001, Roche, Little Falls, NJ, USA) at room temperature for 15 min, washed with PBS and then added DAPI (0.2 μg/mL, Cat. No. D1306, Invitrogen, Waltham, MA, USA) for apoptosis flow cytometry on Gallios (Beckman, Indianapolis, IN, USA).

Flag-BCL-2 WT or mutants = assay: Polyubiquitination assay (Flag IP, HA-Ub blot), BCL-2; conditions: 293T cells, MG132 10 µM pretreatment, 753b 1 uM, 5 h
Description: K16-only, K20-only, and K87-only represent that all the surface lysines on BCL-xL are mutated to arginines except K16, K20, and K87, respectively. Representative immunoblots of Flag-BCL-xL WT and mutants are shown in the top panel. […] K17R and K22R represents that K17 and K22 on BCL-2 are respectively mutated to arginine; K17/22R means both K17 and K22 on BCL-2 are mutated to arginine. Representative immunoblots of Flag-BCL-2 WT and mutants are shown in the top panel. The quantification of the relative Flag-BCL-xL or Flag-BCL-2 protein content in the immunoblots is presented as mean values ± s.e.m. (n = 3 biologically independent experiments) in the bottom panel. […] After 36 h, cells were pre-treated with MG132 (10 µM) for 2 h and then treated with or without 753b (0.1 µM for BCL-xL and 1 uM for BCL-2) for 5 h. The Flag-tagged proteins were immunoprecipitated (IP) and immunoblotted with HA or Flag antibody. The input results are shown in Supplementary Fig. 9. Data are a representative of two independent experiments. Source data are provided as a Source data file.
Proteins were extracted by using IP lysis buffer (Cat. No. 87788, Thermal Fisher Scientific) and IP was performed using Anti-FLAG M2 Magnetic Beads (Cat. No. M8823, Sigma-Aldrich) according to the manufacturer’s protocol. […]

[1] = tested on: HiBit-BCL-xL-WT/K157-only/K-ko with HaloTag-VHL; assay: NanoBRET ternary complex formation of WT, K157-only and K-ko BCL-xL with VHL and DT2216 in 293T cells; conditions: triplicate wells
Description: Plasmids HaloTag-VHL (Cat. No. CS1679C155) and CMV HiBit (Cat. No. CS1956B03) were purchased from Promega. HiBit-BCL-xL and HiBit-BCL-2 were constructed previously. The two mutants (HiBit-BCL-xL-K157-only and HiBit-BCL-xL-K-ko) were constructed through Gibson assembly method. The primer pair (5′-[…]-3′ and 5′-[…]c[…]-3′) and the template Flag-BCL-xL-K157-only or Flag-BCL-xL-K-ko (pDL2129)[2] were used to clone the BCL-xL-K157-only-containing and BCL-xL-K-ko-containing fragments, respectively. The primer pair (5′-[…]g[…]-3′ and 5′-[…]-3′) and pBit3.1-N (Cat. No. N2361, Promega) were used to clone the vector-containing fragment. The PCR fragments were assembled using NEBuilder® HiFi DNA Assembly Master Mix (Cat. No. E2621, NEB, Ipswich, MA, USA). DNA sequences in all these plasmids were authenticated by automatic sequencing. […] After 24 h, 2 × 10^4 transfected cells were seeded into white 96-well tissue culture plates in Gibco™ Opti-MEM™ I Reduced Serum Medium, No Phenol Red (Cat. No. 11-058-021, Fisher) containing 4% FBS with or without HaloTag NanoBRET 618 Ligand (Cat. No. PRN1662, Promega) and incubated overnight at 37 °C, 5% CO2. The following day, serial diluted compounds were added into the medium and plates were incubated at 37 °C, 5% CO2, for 6 h. After treatment, NanoBRET Nano-Glo Substrate (cat. no. N1662, Promega) was added into the medium, and the contents were mixed by shaking the plate for 30 s before measuring donor and acceptor signals on Biotek plate reader. Dual-filtered luminescence was collected with a 450/50 nm bandpass filter (donor, NanoBiT-BCL-XL protein or NanoBiT-BCL-2 protein) and a 610-nm longpass filter (acceptor, HaloTag NanoBRET ligand) using an integration time of 0.5 s. mBRET ratios were calculated following the NanoBRET™ Nano-Glo® Detection System (Cat. No. N1662, Promega).
Supplementary Fig. 3. […] WT represents wild type HiBit-BCL-xL; K157-only means that all the surface lysines on BCL-xL are mutated to arginines except K157; K-ko represents that all the surface lysines on BCL-xL are mutated to arginines. Data are expressed as mean ± s.e.m. of three biological replicates. Source data are provided as a Source Data file.

**Q.** With `Cc1ncsc1-c1ccc([C@H](C)NC(=O)[C@@H]2C[C@@H](O)CN2C(=O)[C@@H](NC(=O)CCCCCCC(=O)N2CCN(C[C@]3(C)CCC(c4ccc(Cl)cc4)=C(CN4CCN(c5ccc(C(=O)NS(=O)(=O)c6ccc(N[C@H](CCN7CCOCC7)CSc7ccccc7)c(S(=O)(=O)C(F)(F)F)c6)cc5)CC4)C3)CC2)C(C)(C)C)cc1` [753b] as the compound, how does the “killing of Kasumi-1 cells by induction of apoptosis (in words)” value (Kasumi-1 cells) read?
**A.** more potent than DT2216, ABT199 (a selective BCL-2 inhibitor) and ABT263 in killing Kasumi-1 cells by induction of apoptosis

**Q.** And the “polyubiquitination of BCL-2 WT and mutants (in words)” value (Flag-BCL-2 WT or mutants)?
**A.** induces polyubiquitination of WT and K22R BCL-2, but not K17R and K17/22R BCL-2

**Q.** For `Cc1ncsc1-c1ccc([C@H](C)NC(=O)[C@@H]2C[C@@H](O)CN2C(=O)[C@@H](NC(=O)CCCCCC(=O)N2CCN(CC[C@H](CSc3ccccc3)Nc3ccc(S(=O)(=O)NC(=O)c4ccc(N5CCN(CC6=C(c7ccc(Cl)cc7)CCC(C)(C)C6)CC5)cc4)cc3S(=O)(=O)C(F)(F)F)CC2)C(C)(C)C)cc1` [DT2216], which “NanoBRET ratio (610/450, background-corrected), Ave of Read1 and Read2” value (from here on “NanoBRET ratio … of Read1 and Read2”) ([1]; BCL-xL-K157-only, 0.004 uM) is on record?
**A.** 10.7987 and 11.5766 and 10.5479

**Q.** What about the “NanoBRET ratio … of Read1 and Read2” value ([1]; BCL-xL-K157-only, 0.012 uM) of the same compound?
**A.** 11.0721 and 10.709 and 10.6817

**Q.** What about the “NanoBRET ratio (610/450, background-corrected), Read1” value ([1]; BCL-xL-K157-only, 0.333 uM) of the same compound?
**A.** 10.8894 and 11.2489 and 10.7657

**Q.** And the “NanoBRET ratio (610/450, background-corrected), Read2” value ([1]; BCL-xL-K157-only, 0.333 uM)?
**A.** 10.7079 and 11.9043 and 10.3302

**Q.** And the “NanoBRET ratio (610/450, background-corrected), Read1” value ([1]; BCL-xL-K157-only, 1 uM)?
**A.** 11.6598 and 10.7529 and 10.4117

**Q.** What about the “NanoBRET ratio (610/450, background-corrected), Read2” value ([1]; BCL-xL-K157-only, 1 uM) of the same compound?
**A.** 10.4844 and 10.6651 and 10.9516

**Q.** And the “NanoBRET ratio (610/450, background-corrected), Read1” value ([1]; BCL-xL-K157-only, 3 uM)?
**A.** 10.1831 and 11.8895 and 11.1918

**Q.** And the “NanoBRET ratio (610/450, background-corrected), Read2” value ([1]; BCL-xL-K157-only, 3 uM)?
**A.** 9.289 and 10.911 and 11.6927

**Q.** And the “NanoBRET ratio … of Read1 and Read2” value ([1]; BCL-xL-K-ko, 0.111 uM)?
**A.** 9.743 and 8.289 and 8.518

**Q.** And the “NanoBRET ratio … of Read1 and Read2” value ([1]; BCL-xL-K-ko, 0.333 uM)?
**A.** 10.8261 and 11.8027 and 12.9139

**Q.** And the “NanoBRET ratio (610/450, background-corrected), Read1” value ([1]; BCL-xL-K-ko, 0.333 uM)?
**A.** 11.2191 and 11.4255 and 13.2322

**Q.** And the “NanoBRET ratio (610/450, background-corrected), Read2” value ([1]; BCL-xL-K-ko, 0.333 uM)?
**A.** 10.4332 and 12.18 and 12.5957

**Q.** And the “NanoBRET ratio … of Read1 and Read2” value ([1]; BCL-xL-K-ko, 1 uM)?
**A.** 12.3201 and 11.4125 and 11.9637

**Q.** And the “NanoBRET ratio (610/450, background-corrected), Read1” value ([1]; BCL-xL-K-ko, 1 uM)?
**A.** 11.8556 and 11.5549 and 12.6815

**Q.** What about the “NanoBRET ratio (610/450, background-corrected), Read2” value ([1]; BCL-xL-K-ko, 1 uM) of the same compound?
**A.** 12.7845 and 11.2702 and 11.2459

**Q.** What about the “NanoBRET ratio … of Read1 and Read2” value ([1]; BCL-xL-K-ko, 3 uM) of the same compound?
**A.** 11.1936 and 11.8549 and 13.734

**Q.** What about the “NanoBRET ratio (610/450, background-corrected), Read1” value ([1]; BCL-xL-K-ko, 3 uM) of the same compound?
**A.** 11.8587 and 11.5989 and 13.3819

**Q.** And the “NanoBRET ratio (610/450, background-corrected), Read2” value ([1]; BCL-xL-K-ko, 3 uM)?
**A.** 10.5286 and 12.111 and 14.0861

**Q.** What about the “NanoBRET ratio … of Read1 and Read2” value ([1]; BCL-xL-WT, 0.004 uM) of the same compound?
**A.** 9.743 and 11.8617 and 10.3438

**Q.** What about the “NanoBRET ratio … of Read1 and Read2” value ([1]; BCL-xL-WT, 0.012 uM) of the same compound?
**A.** 9.762 and 10.7766 and 10.2017

**Q.** What about the “NanoBRET ratio (610/450, background-corrected), Read1” value ([1]; BCL-xL-WT, 0.333 uM) of the same compound?
**A.** 9.95 and 12.5908 and 9.76

**Q.** What about the “NanoBRET ratio (610/450, background-corrected), Read2” value ([1]; BCL-xL-WT, 0.333 uM) of the same compound?
**A.** 9.537 and 11.1326 and 10.9276

**Q.** And the “NanoBRET ratio (610/450, background-corrected), Read1” value ([1]; BCL-xL-WT, 1 uM)?
**A.** 10.2229 and 10.6812 and 9.915

**Q.** And the “NanoBRET ratio (610/450, background-corrected), Read2” value ([1]; BCL-xL-WT, 1 uM)?
**A.** 9.301 and 10.872 and 10.4881

**Q.** And the “NanoBRET ratio (610/450, background-corrected), Read1” value ([1]; BCL-xL-WT, 3 uM)?
**A.** 9.528 and 10.0038 and 9.921

**Q.** What about the “NanoBRET ratio (610/450, background-corrected), Read2” value ([1]; BCL-xL-WT, 3 uM) of the same compound?
**A.** 9.235 and 10.9871 and 9.69
